# Where a SMILES comes first, the peptide text is derived from it. [ ]: non-standard residue; d: D form.
# Experiments:
# [1] = test system: fibroblast cell line NIH 3T3; experiment: Cell proliferation activity, NIH 3T3 cells (MTT); type: cell-based, mouse; settings: 48 h, absorbance 570 nm, triplicates of at least two independent experiments
# Protocol: The cell proliferation activity of PDGF-BB and MTD-PDGF-BB was measured using NIH 3T3 cells, which were cultured in DMEM medium supplemented with 10% Bovine Calf Serum (BCS; Hyclone, USA) in a 96-well plate at 5 × 10^3 cells/well for 24 h. 100 μL of the protein sample, serially diluted with serum-free DMEM medium, was added to each well and cultured at 37 °C for 48 h. After removing the cell culture medium, 100 μL of a mixed solution of 5 mg/mL MTT and serum-free DMEM at a ratio of 1:10 was added to each well. After 4 h of incubation in a CO2 incubator for 4 h, the reaction solution was removed, and 100 μL of DMSO was added to each well. Formazans were sufficiently dissolved in DMSO using a plate shaker to develop a purple color, which was measured at 570 nm using a microplate reader (Spectra Max, Molecular Devices, USA).
# [2] = test system: artificial skin (EpiDermFT); experiment: Skin penetration in artificial skin model, confocal fluorescence intensity; type: in vitro ADME, human; settings: FITC-labeled (GHRP-6, des(1-3)IGF-I forms) or rhodamine-labeled (PDGF-BB forms), 0.2 mg/mL, 40 μL, 24 h, 32 °C, 5% CO2, at least three images
# Protocol: To evaluate skin permeability using confocal microscopy, des(1-3)IGF-I and MTD-des(1-3)IGF-I were labeled with fluorescein isothiocyanate (FITC), and PDGF-BB and MTD-PDGF-BB were labeled with rhodamine. The labeling reaction was carried out with the molar ratio of protein: FITC (or rhodamine) as 1:10 at 4 °C for 2 h. Excess FITC and rhodamine were removed using a PD-10 desalting column (GE Healthcare, USA). After adjusting the concentrations of FITC-labeled GHRP-6, MTD-GHRP-6, des(1-3)IGF-I, MTD-des(1-3)IGF-I, PDGF-BB, and MTD-PDGF-BB to 0.2 mg/mL, respectively, each labeled solution was applied to the artificial skin (EpiDermFT™, MatTek, USA). […] The fluorescence intensity per equivalent area of the dermal layer was calculated for each confocal image. Quantification analysis using fluorescence intensity was calculated based on the fluorescence intensity of confocal microscopy images. Three confocal microscopy images were obtained per each artificial skin, and the fluorescence intensity values were extracted from five areas of the same size per dermis layer in the microscopy images. The relative intensity was calculated by comparing the signals between the samples with and without MTD conjugation.
Compound,"ED50, cell proliferation [1] [µg/mL]",Fluorescence intensity in the dermal layer (permeability) relative to the original cargo [2]
"PDGF-BB: recombinant human platelet-derived growth factor BB, dimeric protein",0.042,
CSCC[C@H](NC(=O)[C@H](CCCNC(=N)N)NC(=O)[C@H](C)NC(=O)[C@H](C)NC(=O)[C@H](C)NC(=O)[C@@H]1CCCN1C(=O)[C@H](C)NC(=O)[C@@H](NC(=O)[C@H](C)NC(=O)[C@H](C)NC(=O)CNC(=O)CNC(=O)[C@H](CCCCN)NC(=O)[C@@H](Cc1ccccc1)NC(=O)[C@H](Cc1c[nH]c2ccccc12)NC(=O)[C@H](C)NC(=O)[C@@H](Cc1c[nH]c2ccccc12)NC(=O)[C@@H](N)Cc1c[nH]cn1)C(C)C)C(=O)O [MTD-GHRP-6] (H-H[dW]AW[dF]KGGAAVAPAAARM-OH),,approximately five

# Source: paper PMC9237094, “Efficient transdermal delivery of functional protein cargoes by a hydrophobic peptide MTD 1067” (Scientific Reports, 2022)
